Results taken from patent US20240109881A1, “Heteroaryl Compounds as Ligand Directed Degraders of IRAK4” (Bristol-Myers Squibb Company, priority 2022, published 2024).

Biological target: T1, IRAK4 (Homo sapiens, UniProt Q9NWZ3)
T1 construct: endogenous in cells; host or cells: THP-1 cells
T1 sequence (Q9NWZ3 1-460): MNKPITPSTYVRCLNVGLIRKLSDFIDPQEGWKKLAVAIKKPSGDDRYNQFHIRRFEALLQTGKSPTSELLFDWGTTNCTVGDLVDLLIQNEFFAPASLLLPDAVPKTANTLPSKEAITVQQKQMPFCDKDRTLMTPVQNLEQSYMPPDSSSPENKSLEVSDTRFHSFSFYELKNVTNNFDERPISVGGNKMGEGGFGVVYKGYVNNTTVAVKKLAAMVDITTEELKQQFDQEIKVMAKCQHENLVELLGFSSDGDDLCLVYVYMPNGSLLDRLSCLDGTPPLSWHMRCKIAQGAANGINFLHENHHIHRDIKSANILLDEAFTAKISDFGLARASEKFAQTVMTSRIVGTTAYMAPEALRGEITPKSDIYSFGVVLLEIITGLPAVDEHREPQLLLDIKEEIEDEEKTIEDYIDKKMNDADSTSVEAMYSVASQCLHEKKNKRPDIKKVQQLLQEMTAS
Assay: ALE THP1 HTRF (Advanced Lipoxidation End Product THP1 Homogeneous Time Resolved Fluorescence)
Assay type: cell-based
Conditions: THP1 cells
Procedure, shortened: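 Cells lysed 45 min at room temperature; lysates normalized to total protein by BCA. Total IRAK4 detected by HTRF sandwich (anti-IRAK4-d2 plus anti-IRAK4-cryptate), incubated overnight in the dark at room temperature, read on a time-resolved fluorescence plate reader.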

Row | Compound | ALE THP1 HTRF YMIN | EC50
1 | N#Cc1cnc2c(cnn2-c2cc(NC3CC3)c(C(=O)NC3CCC(CCN4CCN(c5ccc([C@@H]6CCC(=O)NC6=O)cc5)CC4)CC3)cn2)c1 (some centres unmarked) [P-96] | 8.5% | 0.004 µM
2 | N#Cc1cnc2c(cnn2-c2cc(NC3CC(F)(F)C3)c(C(=O)NC3CCC(CCN4CCN(c5ccc(C6CCC(=O)NC6=O)cc5)CC4)CC3)cn2)c1 (centres unmarked) [P-97] | 15.1% | 0.088 µM
3 | N#Cc1cnc2c(cnn2-c2cc(NC3CC3)c(C(=O)NC3CCC(CCN4CCN(c5ccc(C6CCC(=O)NC6=O)cn5)CC4)CC3)cn2)c1 (centres unmarked) [P-98] | 10.5% | 0.017 µM
4 | N#Cc1cnc2c(cnn2-c2cc(NCCF)c(C(=O)NC3CCC(CCN4CCN(c5ccc(C6CCC(=O)NC6=O)cc5)CC4)CC3)cn2)c1 (centres unmarked) [P-99] | 10.7% | 0.022 µM
5 | N#Cc1cc2ccn(-c3cc(NC4CC4)c(C(=O)NC4CCC(CCN5CCN(c6ccc(C7CCC(=O)NC7=O)cc6)CC5)CC4)cn3)c2nc1F (centres unmarked) [P-100] | 28.3% | 1.1 µM
6 | N#Cc1cnc2c(c1)c(F)cn2-c1cc(NC2CC2)c(C(=O)NC2CCC(CCN3CCN(c4ccc(C5CCC(=O)NC5=O)cc4)CC3)CC2)cn1 (centres unmarked) [P-101] | 24.6% | 0.092 µM
7 | N#Cc1cnc2c(cnn2-c2cc(NC3CC3)c(C(=O)NC3CCC(NCC4CCN(c5ccc(C6CCC(=O)NC6=O)cc5)CC4)CC3)cn2)c1 (centres unmarked) [P-102] | 14.2% | 0.032 µM
8 | CN(CC1CCN(c2ccc(C3CCC(=O)NC3=O)cc2)CC1)[C@H]1CC[C@H](NC(=O)c2cnc(-n3ncc4cc(C#N)cnc43)cc2NC2CC2)CC1 (some centres unmarked) [P-103, 6-(5-cyanopyrazolo[3,4-b]pyridin-1-yl)-4-(cyclopropylamino)-N-[4-[[1-[4-(2,6-dioxo-3-piperidyl)phenyl]-4-piperidyl]methyl-methyl-amino]cyclohexyl]pyridine-3-carboxamide] | 16.2% | 0.029 µM
9 | N#Cc1cnc2c(cnn2-c2cc(NC3CC3)c(C(=O)N[C@H]3CC[C@H](C(F)(F)CN4CCN(c5ccc(C6CCC(=O)NC6=O)cc5)CC4)CC3)cn2)c1 (some centres unmarked) [P-104, 6-(5-cyanopyrazolo[3,4-b]pyridin-1-yl)-4-(cyclopropylamino)-N-[4-[2-[4-[4-(2,6-dioxo-3-piperidyl)phenyl]piperazin-1-yl]-1,1-difluoro-ethyl]cyclohexyl]pyridine-3-carboxamide] | 16.0% | 0.047 µM
10 | N#Cc1cnc2c(cnn2-c2cc(NCC3CC3)c(C(=O)N[C@H]3CC[C@H](CCN4CCN(c5ccc(C6CCC(=O)NC6=O)cc5)CC4)CC3)cn2)c1 (some centres unmarked) [P-105] | 11.5% | 0.076 µM
11 | N#Cc1cnc2c(cnn2-c2cc(NC[C@H]3CCCO3)c(C(=O)N[C@H]3CC[C@H](CCN4CCN(c5ccc(C6CCC(=O)NC6=O)cc5)CC4)CC3)cn2)c1 (some centres unmarked) [P-106] | 17.5% | 0.246 µM
12 | CCCNc1cc(-n2ncc3cc(C#N)cnc32)ncc1C(=O)N[C@H]1CC[C@H](CCN2CCN(c3ccc(C4CCC(=O)NC4=O)cc3)CC2)CC1 (some centres unmarked) [P-107] | 9.1% | 0.014 µM
13 | CC(C)(O)CNc1cc(-n2ncc3cc(C#N)cnc32)ncc1C(=O)N[C@H]1CC[C@H](CCN2CCN(c3ccc(C4CCC(=O)NC4=O)cc3)CC2)CC1 (some centres unmarked) [P-108] | 11.0% | 0.032 µM
14 | N#Cc1cnn2c(-c3cc(NC4CC4)c(C(=O)N[C@H]4CC[C@H](CCN5CCN(c6ccc(C7CCC(=O)NC7=O)cc6)CC5)CC4)cn3)ccc2c1 (some centres unmarked) [P-109] | 10.7% | 0.008 µM
15 | N#Cc1cnc2c(cnn2-c2cc(NCC(F)(F)F)c(C(=O)N[C@H]3CC[C@H](CCN4CCN(c5ccc(C6CCC(=O)NC6=O)cc5)CC4)CC3)cn2)c1 (some centres unmarked) [P-112] | 8.7% | 0.023 µM
16 | N#Cc1cnc2c(cnn2-c2cc(NCC3CCCO3)c(C(=O)N[C@H]3CC[C@H](CCN4CCN(c5ccc(C6CCC(=O)NC6=O)cc5)CC4)CC3)cn2)c1 (some centres unmarked) [P-113] | 18.7% | 0.074 µM
17 | O=C1CCC(c2ccc(N3CCN(CC[C@H]4CC[C@H](NC(=O)c5cnc(-n6ncc7cc(Cl)cnc76)cc5NC5CC5)CC4)CC3)cc2)C(=O)N1 (some centres unmarked) [P-114] | 46.1% | > 5 µM
18 | CC(C)(C#N)Nc1cc(-n2ncc3cc(C#N)cnc32)ncc1C(=O)N[C@H]1CC[C@H](CCN2CCN(c3ccc(C4CCC(=O)NC4=O)cc3)CC2)CC1 (some centres unmarked) [P-115] | 38.9% | > 5 µM
19 | C[C@H]1CN(c2ccc(C3CCC(=O)NC3=O)cc2)C[C@H](C)N1CC[C@H]1CC[C@H](NC(=O)c2cnc(-n3ncc4cc(C#N)cnc43)cc2NC2CC2)CC1 (some centres unmarked) [P-116] | 8.3% | 0.007 µM
20 | O=C1CCC(c2ccc(N3CCN(CC[C@H]4CC[C@H](NC(=O)c5cnc(-n6ncc7cncnc76)cc5NC5CC5)CC4)CC3)cc2)C(=O)N1 (some centres unmarked) [P-117] | 13.6% | 0.033 µM

Row | Compound | ALE THP1 HTRF YMIN | EC50
21 | N#Cc1cnc2c(cnn2-c2cc(NCCC(F)(F)F)c(C(=O)N[C@H]3CC[C@H](CCN4CCN(c5ccc(C6CCC(=O)NC6=O)cc5)CC4)CC3)cn2)c1 (some centres unmarked) [P-118] | 9.9% | 0.034 µM
22 | CCC1(Nc2cc(-n3ncc4cc(C#N)cnc43)ncc2C(=O)N[C@H]2CC[C@H](CCN3CCN(c4ccc(C5CCC(=O)NC5=O)cc4)CC3)CC2)CC1 (some centres unmarked) [P-119] | 8.3% | 0.025 µM
23 | C[C@@H]1CN(CC[C@H]2CC[C@H](NC(=O)c3cnc(-n4ncc5cc(C#N)cnc54)cc3NC3CC3)CC2)CCN1c1ccc(C2CCC(=O)NC2=O)cc1 (some centres unmarked) [P-120] | 7.2% | 0.015 µM
24 | C[C@H]1CN(CC[C@H]2CC[C@H](NC(=O)c3cnc(-n4ncc5cc(C#N)cnc54)cc3NC3CC3)CC2)CCN1c1ccc(C2CCC(=O)NC2=O)cc1 (some centres unmarked) [P-121] | 11.0% | 0.013 µM
25 | N#Cc1cnc2c(cnn2-c2cc(NC3(C#N)CC3)c(C(=O)N[C@H]3CC[C@H](CCN4CCN(c5ccc(C6CCC(=O)NC6=O)cc5)CC4)CC3)cn2)c1 (some centres unmarked) [P-122] | 10.4% | 0.08 µM
26 | N#Cc1cnn2c(-c3cc(NC4CC4)c(C(=O)N[C@H]4CC[C@H](CCN5CCN(c6ccc(C7CCC(=O)NC7=O)cc6)CC5)CC4)cn3)cnc2c1 (some centres unmarked) [P-123] | 24.4% | 0.062 µM
27 | N#Cc1cnc2c(cnn2-c2cc(NC3CC3)c(C(=O)N[C@H]3CC[C@H](CCN4CC5(C4)CN(c4ccc(C6CCC(=O)NC6=O)cc4)C5)CC3)cn2)c1 (some centres unmarked) [P-124] | 19.2% | 0.046 µM
28 | CN(C[C@H]1CC[C@H](NC(=O)c2cnc(-n3ncc4cc(C#N)cnc43)cc2NC2CC2)CC1)C1CCN(c2ccc3c(c2)CN(C2CCC(=O)NC2=O)C3=O)CC1 (some centres unmarked) [P-127] | 24.5% | 0.008 µM
29 | N#Cc1cnc2c(cnn2-c2cc(NC3CC3)c(C(=O)N[C@H]3CC[C@H](C(=O)NC4CCN(c5ccc6c(c5)CN(C5CCC(=O)NC5=O)C6=O)CC4)CC3)cn2)c1 (some centres unmarked) [P-129] | 24.2% | 0.047 µM
30 | N#Cc1cnc2c(cnn2-c2cc(NC3CC3)c(C(=O)N[C@H]3CC[C@H](CN4CCC5(CCN(c6ccc7c(c6)CN(C6CCC(=O)NC6=O)C7=O)CC5)C4)CC3)cn2)c1 (some centres unmarked) [P-130] | 20.0% | 0.015 µM
31 | N#Cc1cc2cnn(-c3cc(NC4CC4)c(C(=O)N[C@H]4CC[C@H](CCN5CCN(c6ccc(C7CCC(=O)NC7=O)cc6)CC5)CC4)cn3)c2nc1N (some centres unmarked) [P-131] | 5.3% | 0.003 µM
32 | CS(=O)(=O)N1CCC(Nc2cc(-n3ncc4cc(C#N)cnc43)ncc2C(=O)N[C@H]2CC[C@H](CCN3CCN(c4ccc(C5CCC(=O)NC5=O)cc4)CC3)CC2)CC1 (some centres unmarked) [P-132] | 7.9% | 0.013 µM
33 | CS(=O)(=O)N1CCC(Nc2cc(-n3ncc4cc(C#N)c(N)nc43)ncc2C(=O)N[C@H]2CC[C@H](CCN3CCN(c4ccc(C5CCC(=O)NC5=O)cc4)CC3)CC2)CC1 (some centres unmarked) [P-133] | 6.9% | 0.01 µM
34 | CC(C)Nc1cc(Nc2ccc(C#N)cc2Cl)ncc1C(=O)N[C@H]1CC[C@H](CCN2CCN(c3ccc(C4CCC(=O)NC4=O)cc3)CC2)CC1 (some centres unmarked) [P-134] | 20.9% | 0.094 µM
35 | C[C@H](C#N)Nc1cc(-n2ncc3cc(C#N)c(N)nc32)ncc1C(=O)N[C@H]1CC[C@H](CCN2CCN(c3ccc(C4CCC(=O)NC4=O)cc3)CC2)CC1 (some centres unmarked) [P-135] | 7.3% | 0.001 µM
36 | C[C@H](C#N)Nc1cc(-n2ncc3cc(C#N)cnc32)ncc1C(=O)N[C@H]1CC[C@H](CCN2CCN(c3ccc(C4(C)CCC(=O)NC4=O)cc3)CC2)CC1 (some centres unmarked) [P-136] | 7.4% | 0.006 µM
37 | N#Cc1cnc2c(cnn2-c2cc(NC3CCC(C(N)=O)CC3)c(C(=O)N[C@H]3CC[C@H](CCN4CCN(c5ccc(C6CCC(=O)NC6=O)cc5)CC4)CC3)cn2)c1 (some centres unmarked) [P-137] | 7.7% | 0.018 µM
38 | CCNc1cc(Nc2ccc3ncc(F)cc3n2)ncc1C(=O)N[C@H]1CC[C@H](CCN2CCN(c3ccc(C4CCC(=O)NC4=O)cc3)CC2)CC1 (some centres unmarked) [P-138] | 42.1% | 1.28 µM
39 | CC1(Nc2cc(-n3ncc4cc(C#N)cnc43)ncc2-n2cc([C@H]3CC[C@H](CCN4CCN(c5ccc(C6CCC(=O)NC6=O)cc5)CC4)CC3)nn2)CC1 (some centres unmarked) [P-140] | 6.4% | 0.03 µM
40 | O=C1CCC(c2ccc(N3CCN(CC[C@H]4CC[C@H](NC(=O)c5cnc(Nc6ccc7[nH]c(=O)sc7c6)cc5NC5CC5)CC4)CC3)cc2)C(=O)N1 (some centres unmarked) [P-141] | 6.1% | < 0.001 µM
